MIC data for 6 compounds are collected here from DBAASP.

≈ marks a conversion by molar mass, not a printed value.

Some test systems named below: Candida albicans; Neisseria meningitidis; Pseudomonas aeruginosa; Saccharomyces cerevisiae; Vibrio cholerae; Klebsiella pneumoniae; Salmonella typhimurium; Acinetobacter baumannii; Escherichia coli AB94012; Staphylococcus aureus; Staphylococcus xylosus.
What all share (assay): ≥ marks a high value that may be exact or a test limit, other limits are often not marked, values filed in µg/mL are converted to µM
The test system of test [1] is Escherichia coli ATCC 8739.
Test [2] deals with Pseudomonas aeruginosa ATCC 9027.
For test [3], the system named is Proteus vulgaris NCTC 4635.
The test system of test [4] is Staphylococcus aureus ATCC 6538.
Test [5] deals with Bacillus subtilis ATCC 9372.
For test [6], the system named is Staphylococcus aureus ATCC 25923.
Test [7] concerns Enterobacter cloacae ATCC 11775.
The test system of test [8] is Salmonella enterica subsp. enterica serovar Enteritidis.
For test [9], the system named is Bacillus megaterium ATCC 9885.
The subject of test [10] is Staphylococcus haemolyticus.
In test [11] the test system is Escherichia coli 363 ATCC 11775.
The test system of test [12] is Escherichia coli ATCC 25726.
For test [13], the system named is Stenotrophomonas maltophilia.
The test system of test [14] is Staphylococcus epidermidis RP62A/1.
Test [15] deals with Pseudomonas aeruginosa ATCC 27853.
For test [16], the system named is Klebsiella pneumoniae ATCC 700603.
In test [17] the test system is Staphylococcus aureus ATCC 29213.
Test [18] deals with Proteus mirabilis ATCC 25933.
The test system of test [19] is Candida albicans ATCC 90028.
Test [20] deals with Staphylococcus epidermidis RP62A.
The subject of test [21] is Batrachochytrium dendrobatidis.
Test [22] has as its system Escherichia coli ATCC 25922.
The subject of test [23] is Staphylococcus aureus AB94004.
In test [24] the test system is Staphylococcus aureus P1386.
Test [25] has as its system Staphylococcus epidermidis P1111.
For test [26], the system named is Staphylococcus aureus P1369.
Test [27] has as its system Staphylococcus epidermidis P1389.
Test [28] deals with Micrococcus luteus AB93113.
The subject of test [29] is Pseudomonas aeruginosa AB93066.
Test [30] has as its system Staphylococcus aureus P1374.
Test [31] relates to Bacillus thuringiensis AB92037.
The test system of test [32] is Bacillus subtilis AB91021.
The subject of test [33] is Staphylococcus aureus CIP 53.156.
Test [34] deals with Staphylococcus xylosus ATCC 35033.

For `CC[C@H](C)[C@H](N)C(=O)N[C@@H](CCCCN)C(=O)N[C@@H](CCCCN)C(=O)N[C@H](C(=O)N[C@@H](C)C(=O)N[C@@H](CO)C(=O)N[C@H](C(=O)O)C(C)C)C(C)C` [IKKVASV], the minimal inhibitory concentration (MIC) in test [1] was not below 1380 µM; in [2], 1380 µM (≈ 1020 µg/mL); in [3], not below 1380 µM; in [4], more than 1380 µM; in test [5] it was not below 1380 µM.
For the compound `CC(C)C[C@H](NC(=O)[C@H](CC(C)C)NC(=O)[C@H](CCCCN)NC(=O)CNC(=O)[C@H](C)NC(=O)[C@@H](NC(=O)[C@H](CCCCN)NC(=O)[C@H](CC(C)C)NC(=O)[C@H](CC(C)C)NC(=O)[C@H](CC(=O)O)NC(=O)[C@@H](NC(=O)[C@@H](NC(=O)[C@@H](NC(=O)CN)C(C)C)C(C)C)[C@@H](C)O)[C@@H](C)O)C(=O)NCC(=O)N[C@@H](CC(N)=O)C(=O)N[C@@H](CC(C)C)C(=O)N[C@H](C(=O)NCC(=O)N[C@@H](CO)C(=O)N[C@@H](CC(C)C)C(=O)N[C@@H](CO)C(=O)NCC(N)=O)C(C)C` [GVVTDLLKTAGKLLGNLVGSLSG], the MIC in [6] is 50.5 µM (≈ 112 µg/mL); against Candida albicans, 150 µM (≈ 332 µg/mL); in [7], not below 100 µM; in [8], 25 µM (≈ 55.3 µg/mL); in the test on Neisseria meningitidis it was not below 100 µM; in test [9], 12.5 µM (≈ 27.6 µg/mL). The MIC with Pseudomonas aeruginosa is 100 µM (≈ 221 µg/mL); in the test with Saccharomyces cerevisiae, not below 300 µM; with Vibrio cholerae, 25 µM (≈ 55.3 µg/mL); in test [10], not below 100 µM; with Klebsiella pneumoniae, 100 µM (≈ 221 µg/mL); in test [11], 12.5 µM (≈ 27.6 µg/mL). Further, the minimal inhibitory concentration (MIC) in the test on Salmonella typhimurium is not below 50 µM.
Regarding `CC[C@H](C)[C@H](N)C(=O)N[C@@H](CCCCN)C(=O)N[C@@H](CC(C)C)C(=O)N[C@@H](CO)C(=O)N1CCC[C@H]1C(=O)N[C@@H](CCC(=O)O)C(=O)N[C@H](C(=O)N[C@@H](CCCCN)C(=O)N[C@@H](CC(=O)O)C(=O)N[C@@H](CC(N)=O)C(=O)N[C@@H](CC(C)C)C(=O)N[C@@H](CCCCN)C(=O)N[C@@H](CCCCN)C(=O)N[C@H](C(=O)N[C@@H](CC(C)C)C(=O)N[C@@H](CCCCN)C(=O)NCC(=O)N[C@@H](C)C(=O)N[C@H](C(=O)N[C@@H](CCCCN)C(=O)NCC(=O)N[C@@H](C)C(=O)N[C@H](C(=O)N[C@@H](C)C(=O)N[C@H](C(=O)N[C@@H](C)C(=O)N[C@@H](CCCCN)C(=O)N[C@@H](CCSC)C(=O)N[C@H](C(N)=O)C(C)C)C(C)C)[C@@H](C)CC)[C@@H](C)CC)C(C)C)[C@@H](C)O` [IKLSPETKDNLKKVLKGAIKGAIAVAKMV], the MIC in test [6] was determined as 10 µM (≈ 30.6 µg/mL); in [12], 20 µM (≈ 61.3 µg/mL); in test [13], 6.25 µM (≈ 19.1 µg/mL); in test [14], 1.6 µM (≈ 4.9 µg/mL); in test [15], 40 µM (≈ 123 µg/mL); in test [16] it was 20 µM (≈ 61.3 µg/mL). Also, the MIC in the test with Acinetobacter baumannii was 6.25 µM (≈ 19.1 µg/mL); in [17], 12.5 µM (≈ 38.3 µg/mL); in [18] it was not below 100 µM; in test [19] it was not below 80 µM; against Klebsiella pneumoniae, 25 µM (≈ 76.6 µg/mL); in [20], 3.1 µM (≈ 9.5 µg/mL).
With `CC[C@H](C)[C@H](NC(=O)CN)C(=O)N[C@@H](CCSC)C(=O)N[C@@H](CC(=O)O)C(=O)N[C@@H](CO)C(=O)N[C@H](C(=O)N[C@@H](CCCCN)C(=O)NCC(=O)N[C@@H](CC(C)C)C(=O)N[C@@H](C)C(=O)N[C@@H](CCCCN)C(=O)N[C@@H](CC(N)=O)C(=O)N[C@@H](CC(C)C)C(=O)N[C@@H](C)C(=O)NCC(=O)N[C@@H](CCCCN)C(=O)N[C@@H](CC(C)C)C(=O)N[C@@H](CC(C)C)C(=O)N[C@@H](CC(=O)O)C(=O)N[C@@H](CO)C(=O)N[C@@H](CC(C)C)C(=O)N[C@@H](CCCCN)C(=O)N[C@H]1CSSC[C@@H](C(=O)O)NC(=O)CNC(=O)[C@H]([C@@H](C)O)NC(=O)[C@H]([C@@H](C)CC)NC(=O)[C@H](CCCCN)NC1=O)C(C)C` [GIMDSVKGLAKNLAGKLLDSLKCKITGC], the MIC in test [21] amounted to 12.5 µM (≈ 35.9 µg/mL); in test [22], 17 µM (≈ 48.9 µg/mL).
On to `CC[C@H](C)[C@H](NC(=O)[C@H](C)NC(=O)[C@H](CO)NC(=O)[C@@H](NC(=O)[C@H](CC(C)C)NC(=O)CNC(=O)CNC(=O)[C@@H](NC(=O)[C@H](CC(C)C)NC(=O)[C@H](CO)NC(=O)[C@@H]1CCCN1C(=O)[C@H](CC(C)C)NC(=O)[C@H](CC(C)C)NC(=O)[C@H](CO)NC(=O)[C@H](Cc1ccccc1)NC(=O)[C@@H](N)Cc1ccccc1)[C@@H](C)CC)C(C)C)C(=O)N[C@@H](CCCCN)C(N)=O` [FFSLLPSLIGGLVSAIK], for which the minimal inhibitory concentration (MIC) was 11.3 µM (≈ 20 µg/mL) in test [23]; not below 56.7 µM in the test on Escherichia coli AB94012; 28.4 µM (≈ 50 µg/mL) in test [24]; 11.3 µM (≈ 20 µg/mL) in [25]; 28.4 µM (≈ 50 µg/mL) in test [26]; 28.4 µM (≈ 50 µg/mL) in test [27]. For the same compound, the MIC was 11.3 µM (≈ 20 µg/mL) in [28]; not below 56.7 µM in [29]; 28.4 µM (≈ 50 µg/mL) in test [30]; 28.4 µM (≈ 50 µg/mL) in test [31]; 28.4 µM (≈ 50 µg/mL) in test [32].
For the compound `CC[C@H](C)[C@H](NC(=O)[C@@H](N)CCCCN)C(=O)N[C@@H](CCCCN)C(=O)N[C@H](C(=O)N1CCC[C@H]1C(=O)N[C@@H](Cc1c[nH]c2ccccc12)C(=O)NCC(=O)N[C@@H](CCCCN)C(=O)N[C@H](C(=O)N[C@@H](CCCCN)C(=O)N[C@@H](CC(=O)O)C(=O)N[C@@H](Cc1ccccc1)C(=O)N[C@@H](CC(C)C)C(=O)N[C@H](C(=O)NCC(=O)NCC(=O)N[C@@H](CCSC)C(=O)N[C@@H](CCCCN)C(=O)N[C@@H](C)C(=O)N[C@H](C(=O)O)C(C)C)C(C)C)C(C)C)[C@@H](C)CC` [KIKIPWGKVKDFLVGGMKAV], the MIC in the test with Staphylococcus aureus was 15.4 µM (≈ 34 µg/mL); in [33] it was not below 57 µM; in [34], 2.08 µM (≈ 4.6 µg/mL); with Staphylococcus xylosus it was 1.35 µM (≈ 3 µg/mL).
